Results taken from ChEMBL document CHEMBL1201862, “PubChem BioAssay data set” (2004).
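Interpolation was linear, between the two tested concentrations surrounding the appropriate level; five concentrations were tested over 48 hours in 96-well plates. Abbreviation: GI50, concentration required for 50% inhibition of growth.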 The source made the active and inactive calls. No stated cut-off is given here; in the data, active = GI50 up to about 1.1 µM and inactive = higher.

Legend:
Assay in all cases: NCI-60 cell line screen, 48 h
RXF 393 = test system: RXF 393
SW-620 = test system: SW-620
IGROV-1 = test system: IGROV-1
OVCAR-8 = test system: OVCAR-8
RPMI-8226 = test system: RPMI-8226
COLO 205 = test system: COLO 205
SK-OV-3 = test system: SK-OV-3
HL-60 = test system: HL-60
UO-31 = test system: UO-31
K562 = test system: K562
HCT-15 = test system: HCT-15
HCT-116 = test system: HCT-116
SNB-75 = test system: SNB-75
Malme-3M = test system: Malme-3M
LOX IMVI = test system: LOX IMVI
SN12C = test system: SN12C

Row | SMILES | GI50 (RXF 393) | GI50 (SW-620) | GI50 (IGROV-1) | GI50 (OVCAR-8) | GI50 (RPMI-8226) | GI50 (COLO 205) | GI50 (SK-OV-3) | GI50 (HL-60) | GI50 (UO-31) | GI50 (K562) | GI50 (HCT-15) | GI50 (HCT-116) | GI50 (SNB-75) | GI50 (Malme-3M) | GI50 (LOX IMVI) | GI50 (SN12C)
1 | CCN(CC)C1CC(O[C@H]2C[C@](O)(C(=O)CO)Cc3c(O)c4c(c(O)c32)C(=O)c2c(OC)cccc2C4=O)OC(C)C1O (some centres undefined) | 0.0446 µM (active) | < 0.0219 µM (active) | 0.0859 µM (active) | < 0.0262 µM (active) | 0.0513 µM (active) | 0.0387 µM (active) | 0.299 µM (active) | 0.106 µM (active) | 0.0604 µM (active) | 0.0264 µM (active) | 0.245 µM | 0.0214 µM (active) | 0.028 µM (active) | 0.0653 µM (active) | < 0.0259 µM (active) | 0.045 µM (active)
2 | CCCCOC(=O)NC(=O)c1cn(CCCOC(=O)CCCCCCCCC(=O)OCCCn2cc(C(=O)NC(=O)OCCCC)c(=O)n(C)c2=O)c(=O)n(C)c1=O | > 100 µM (inactive) | > 100 µM (inactive) | > 100 µM (inactive) | > 100 µM (inactive) | > 100 µM (inactive) | > 100 µM (inactive) | – | > 100 µM (inactive) | > 100 µM (inactive) | > 100 µM (inactive) | > 100 µM | > 100 µM (inactive) | 58.1 µM (inactive) | > 100 µM (inactive) | – | > 100 µM (inactive)
3 | CC(=O)OCc1ncccc1C(OC(C)=O)OC(C)=O | > 100 µM (inactive) | > 100 µM (inactive) | > 100 µM (inactive) | > 100 µM (inactive) | – | > 100 µM (inactive) | > 100 µM (inactive) | > 100 µM (inactive) | > 100 µM (inactive) | > 100 µM (inactive) | > 100 µM | > 100 µM (inactive) | > 100 µM (inactive) | > 100 µM (inactive) | > 100 µM (inactive) | > 100 µM (inactive)
4 | CC/C=C/c1cc2c(c3[nH]ccc13)[C@@H](C)CC2C.CC/C=C/c1cc2cc[nH]c2c2c1C(C)C[C@@H]2C.CCc1cc2c(c3[nH]ccc13)[C@@H](C)CC2C (some centres undefined) | 12.2 µM (inactive) | 16.9 µM (inactive) | – | 17.2 µM (inactive) | – | 20.9 µM (inactive) | – | 18.3 µM (inactive) | 16.6 µM (inactive) | – | – | 18.5 µM (inactive) | 10 µM (inactive) | 20.2 µM (inactive) | 15.6 µM (inactive) | 15.1 µM (inactive)
5 | COc1ccc2cc3n(c(=O)c2c1)CCc1c-3cc(OC)c(OC)c1OC | – | > 100 µM (inactive) | > 100 µM (inactive) | > 100 µM (inactive) | > 100 µM (inactive) | > 100 µM (inactive) | > 100 µM (inactive) | > 100 µM (inactive) | > 100 µM (inactive) | > 100 µM (inactive) | > 100 µM | > 100 µM (inactive) | 34.7 µM (inactive) | > 100 µM (inactive) | – | > 100 µM (inactive)
6 | CC1CCC2[C@@H](C)COC3O[C@]4(C)CCC1C32OO4 (some centres undefined) | > 100 µM (inactive) | > 100 µM (inactive) | > 100 µM (inactive) | > 100 µM (inactive) | – | > 100 µM (inactive) | > 100 µM (inactive) | – | 54.1 µM (inactive) | 38.9 µM (inactive) | > 100 µM | > 100 µM (inactive) | 91.6 µM (inactive) | > 100 µM (inactive) | > 100 µM (inactive) | > 100 µM (inactive)
7 | CN(C)CCN1CCc2c([nH]c3ccccc23)C1c1cccnc1 (centres undefined) | 20.2 µM (inactive) | > 100 µM (inactive) | > 100 µM (inactive) | > 100 µM (inactive) | > 100 µM (inactive) | – | > 100 µM (inactive) | > 100 µM (inactive) | 40.9 µM (inactive) | > 100 µM (inactive) | > 100 µM | > 100 µM (inactive) | 61.1 µM (inactive) | – | – | > 100 µM (inactive)
8 | Nn1c(-c2ccccc2Cl)nc2ccccc2c1=O | – | > 100 µM (inactive) | > 100 µM (inactive) | > 100 µM (inactive) | > 100 µM (inactive) | > 100 µM (inactive) | > 100 µM (inactive) | > 100 µM (inactive) | > 100 µM (inactive) | > 100 µM (inactive) | > 100 µM | > 100 µM (inactive) | > 100 µM (inactive) | 83.8 µM (inactive) | – | > 100 µM (inactive)
9 | CC(C)=CCC/C(C)=C/Cc1c(O)ccc2c1[nH]c1cc(O)c(C)cc12 | 14 µM (inactive) | 13.9 µM (inactive) | 14.7 µM (inactive) | 9.46 µM (inactive) | 17.8 µM (inactive) | > 25 µM (inactive) | 24.2 µM (inactive) | 7.53 µM (inactive) | 7.73 µM (inactive) | 9.38 µM (inactive) | 9.71 µM | 13.3 µM (inactive) | – | 13.6 µM (inactive) | 8.36 µM (inactive) | 14.6 µM (inactive)
10 | Cc1ncc(CCl)c2c1OC(C)(C)OC2 | 16 µM (inactive) | 18.7 µM (inactive) | > 100 µM (inactive) | 67.1 µM (inactive) | 37.2 µM (inactive) | – | > 100 µM (inactive) | 27 µM (inactive) | > 100 µM (inactive) | 41.2 µM (inactive) | – | 25.1 µM (inactive) | – | 19.2 µM (inactive) | 17.3 µM (inactive) | 35.6 µM (inactive)
